Values of other authors as cited in patent US20040101539A1, “Aqueous dispersion of low-melting organic solids” (priority 2002, published 2004).

Settings: at 25° C.

water solubility: 2 ppm
SMILES: CCCCCCCCn1sc(Cl)c(Cl)c1=O [DCOIT, 4,5-dichloro-2-octyl-3(2H)-isothiazolone]
